Test results as given in US8853359B2, “Endokinin C/D-derived peptides” (University of Miyazaki, priority 2009, dated 2014).

Legend:
Type in all cases: in vivo, rat
[1] = tested on: carrageenan-induced thermal hyperalgesia; assay: withdrawal latency to noxious thermal stimulation after carrageenan, intrathecal pre-administration of peptide; details: 10^-3M (10 nmol/10 μl) peptide intrathecal; 2% carrageenan 4 hours later; FIG. 9B
Protocol: In Example 6, 10^−3M (10 nmol/10 μl) D-EKC/D (3), (5), or (7), Spantide I, or saline (10 μl) was administered to intrathecally catheterized rats via catheters. Four hours later, 100 μl of 2% carrageenan (2 mg/100 μl) was subcutaneously administered to rat plantar.
Meanwhile, noxious thermal stimulation was applied to paw plantar using infrared rays at 10-minute intervals after carrageenan administration. The time (latency period) required for withdrawal response to take place was measured. The latency period before untreated rats following noxious thermal stimulation was designated as the control latency period.

[2] = paw size after subcutaneous administration of peptide alone to plantar; details: 10^-3M D-EKC/D (3) subcutaneous to plantar; for paw plantar size after administration of peptide alone: FIG. 10A
Protocol: 100 μlof saline or 10^−3M (100 nmol/100 D-EKC/D (3) was subcutaneously administered to rat plantar. Paw size was measured with time for 60 minutes after administration. Paw size (control) before administration was designated as the basal level, and increases in paw size were then calculated.

[3] = tested on: carrageenan-induced inflammation; assay: carrageenan-induced increase in paw size after subcutaneous pre-administration of peptide to plantar; details: 10^-3M (100 nmol/100 μl) subcutaneous to plantar
Protocol: 100 μl of saline, 10^−3M (100 nmol/100 μl) D-EKC/D (3), or 10^−3M (100 nmol/100 μl) Spantide II (N^6-[(3-pyridinyl)carbonyl]-D-Lys-L-Pro-3-(3-pyridinyl)-L-Ala-L-Pro-3,4-dichloro-D-Phe-L-Asn-D-Trp-L-Phe-D-Trp-L-Leu-L-Nle-NH2) (SEQ ID NO: 21) was subcutaneously administered to rat plantar. Four (4) hours later, 100 μl (2 mg/100 μl) of 2% carrageenan was subcutaneously administered to rat plantar. Paw size was measured every 10 minutes for 60 minutes after carrageenan administration. The paw size (control) before carrageenan administration was designated as the basal level and increases in paw size were then calculated.
Procedures similar to those in Experiment B were performed, except for administration of carrageenan at 8 hours after administration of saline, D-EKC/D (3), or Spantide II.
Procedures similar to those in Experiment B were performed except that the test with Spantide II was not conducted and carrageenan was administered at 14 hours after administration of saline or D-EKC/D (3).

Ala-Tyr-Gln-Leu-Glu-His-Thr-Phe-Gln-DTrp-Leu-Leu-NH2 (AYQLEHTFQXLL; HELM PEPTIDE1{A.Y.Q.L.E.H.T.F.Q.[dW].L.L.[am]}$$$$V2.0; N-terminus assumed; SMILES CC(C)C[C@H](NC(=O)[C@H](CC(C)C)NC(=O)[C@@H](Cc1c[nH]c2ccccc12)NC(=O)[C@H](CCC(N)=O)NC(=O)[C@H](Cc1ccccc1)NC(=O)[C@@H](NC(=O)[C@H](Cc1c[nH]cn1)NC(=O)[C@H](CCC(=O)O)NC(=O)[C@H](CC(C)C)NC(=O)[C@H](CCC(N)=O)NC(=O)[C@H](Cc1ccc(O)cc1)NC(=O)[C@H](C)N)[C@@H](C)O)C(N)=O) [D-EKC/D (3)]
withdrawal time (latency period) [1]: significant increases | inflammation reaction caused by the peptide [2]: no inflammation reaction took place | paw plantar size after administration of peptide alone ([2]; 60 minutes after administration): restored to near the basal (control) level | paw plantar size after administration of peptide alone ([2]; early after administration): tentatively increased | increases in paw size accompanying carrageenan-induced inflammation ([3]; carrageenan 4 hours later, FIG. 10B): suppressed increases in paw size accompanying carrageenan-induced inflammation more significantly than administration of Spantide II | increases in paw size accompanying carrageenan-induced inflammation ([3]; carrageenan 8 hours later, FIG. 10C): suppressed increases in paw size | increases in paw size accompanying carrageenan-induced inflammation ([3]; carrageenan 14 hours later, FIG. 10D): suppressed increases in paw size
